We go through eight compounds from ChEMBL document CHEMBL1127680, “Specific inhibitors of ileal bile acid transport” (J Med Chem, 1994).

Holding throughout (format): functional
Assay [1] has as its system Rattus norvegicus. In words: The compound was evaluated for the percentage inhibition of ileal taurocholate transport, in anesthetized wistar rats at 30 min.
Assay [2] relates to Rattus norvegicus. The assay can be described thus: The compound was evaluated for the percentage inhibition of ileal taurocholate transport, in anesthetized wistar rats at 60 min.
For assay [3], the system named is Rattus norvegicus. The assay can be described thus: The compound was evaluated for the percentage inhibition of ileal taurocholate transport; in anesthetized wistar rats at 12 min.
The species entered for assay [4] is Oryctolagus cuniculus. In words: The compound was evaluated for the inhibition of Na+-dependent [3H]taurocholate uptake into ileal brush border membrane vesicles in rabbit; by 50%.
The species entered for assay [5] is Oryctolagus cuniculus. In words: The compound was evaluated for the inhibition of Na+ dependent [3H]taurocholate uptake into ileal brush border membrane vesicles in rabbit; by 25%.
Assay [6] is filed under the species Oryctolagus cuniculus. The assay can be described thus: The compound was evaluated for the inhibition of Na+-dependent [3H]taurocholate uptake into ileal brush border membrane vesicles in rabbit; by 75%.
The species entered for assay [7] is Oryctolagus cuniculus. In words: The compound was evaluated for the inhibition of Na+-dependent [3H]taurocholate uptake into ileal brush border membrane vesicles in rabbit, by 75%.
For assay [8], the species on record is Oryctolagus cuniculus. The assay can be described thus: The compound was evaluated for the inhibition of Na+-dependent [3H]taurocholate uptake into ileal brush border membrane vesicles in rabbit, by 50%.
The species named for assay [9] is Oryctolagus cuniculus. The assay can be described thus: The compound was evaluated for the inhibition of Na+-dependent [3H]taurocholate uptake into ileal brush border membrane vesicles in rabbit, by 25%.
In assay [10] the test system is Rattus norvegicus. The assay can be described thus: The compound was evaluated for the percentage inhibition of ileal taurocholate transport, in anesthetized wistar rats at 12 min.

By Inhibition is commonly meant the percentage by which the read-out fell short of the control. Usually IC50 stands for the concentration that inhibits the measured activity by half. Read a low IC50 as greater potency. The IC25 is the point of the concentration-response curve where the effect stands at 25%. Read a high IC25 as weaker potency. For orientation: IC75 means the concentration needed for an effect of 75%.

For the compound `CC(CCC(=O)NCCO[C@H]1CC[C@@]2(C)[C@@H](C1)C[C@@H](O)[C@@H]1[C@@H]2C[C@H](O)[C@]2(C)C(C(C)CCC(=O)O)CC[C@@H]12)C1CC[C@H]2[C@@H]3[C@H](O)C[C@@H]4C[C@H](O)CC[C@]4(C)[C@H]3C[C@H](O)[C@]12C` (stereo partly specified), the Inhibition in the assay with Rattus norvegicus [1] was 23%; in the assay with Rattus norvegicus [2], 18%; in the assay on Rattus norvegicus [3], 23%. Inhibition in the assay listed under Oryctolagus cuniculus [4] was half-maximal at 36 µM (IC50). Also, the concentration for an effect of 25% (IC25) in the assay listed under Oryctolagus cuniculus [5] amounted to 20 µM. This compound yielded an IC75 in the assay listed under Oryctolagus cuniculus [6] of 57 µM.
On to `CC(CCC(=O)O)C1CC[C@H]2[C@@H]3[C@H](O)C[C@@H]4C[C@@H](OCCNC(=O)CCC(C)C5CC[C@H]6[C@@H]7[C@H](O)C[C@@H]8C[C@H](OC(c9ccccc9)c9ccccc9)CC[C@]8(C)[C@H]7C[C@H](O)[C@]56C)CC[C@]4(C)[C@H]3C[C@H](O)[C@]12C` (stereo partly specified), for which, in the assay listed under Oryctolagus cuniculus [7], the IC75 was over 250 µM. In the assay filed under Oryctolagus cuniculus [8], the IC50 is over 250 µM. The 25% effect level in the assay filed under Oryctolagus cuniculus [9] (IC25) was put at 125 µM.
As to `C[C@H](CCC(=O)O)[C@H]1CC[C@H]2[C@@H]3[C@H](O)C[C@@H]4C[C@H](O)CC[C@]4(C)[C@H]3C[C@H](O)[C@]12C`, in the assay filed under Oryctolagus cuniculus [7], the IC75 came out at 152 µM. Moreover, it took 40 µM to reach the 25% level in the assay filed under Oryctolagus cuniculus [9] (IC25).
In the case of `C[C@H](CCC(=O)NCCS(=O)(=O)O)[C@H]1CC[C@H]2[C@@H]3[C@H](O)C[C@@H]4C[C@H](O)CC[C@]4(C)[C@H]3CC[C@]12C`, the IC75 in the assay listed under Oryctolagus cuniculus [7] stood at 61 µM. Further, the IC25 in the assay listed under Oryctolagus cuniculus [9] was 13 µM.
For `CC(CCC(=O)O)C1CC[C@H]2[C@@H]3[C@H](O)C[C@@H]4C[C@@H](OCCNC(=O)CCC(=O)NCCCNC(=O)CCC(C)C5CC[C@H]6[C@@H]7[C@H](O)C[C@@H]8C[C@H](OC(c9ccccc9)c9ccccc9)CC[C@]8(C)[C@H]7C[C@H](O)[C@]56C)CC[C@]4(C)[C@H]3C[C@H](O)[C@]12C` (stereo partly specified), the Inhibition with Rattus norvegicus [1] was determined as 16%; with Rattus norvegicus [2] it was 10%; in the assay on Rattus norvegicus [10] it was 26%. Also, it took 30 µM to reach the 75% level in the assay listed under Oryctolagus cuniculus [7] (IC75). Moreover, the IC50 in the assay listed under Oryctolagus cuniculus [8] is 19 µM. The compound also returned an IC25 in the assay filed under Oryctolagus cuniculus [9] of 9 µM.
`CC(CCC(=O)O)C1CC[C@H]2[C@@H]3[C@H](O)C[C@@H]4C[C@@H](OCCNC(=O)CCC(C)C5CC[C@H]6[C@@H]7CC[C@@H]8C[C@H](O)CC[C@]8(C)[C@H]7CC[C@]56C)CC[C@]4(C)[C@H]3C[C@H](O)[C@]12C` (stereo partly specified) registered an IC75 in the assay listed under Oryctolagus cuniculus [7] of over 250 µM. The compound further had an IC50 in the assay filed under Oryctolagus cuniculus [8] of over 250 µM. In addition, in the assay listed under Oryctolagus cuniculus [9], it took 154 µM to reach the 25% level (IC25).
`CC(CCC(=O)O)C1CC[C@H]2[C@@H]3[C@H](O)C[C@@H]4C[C@@H](NC(=O)CCC(C)C5CC[C@H]6[C@@H]7CC[C@@H]8C[C@H](O)CC[C@]8(C)[C@H]7CC[C@]56C)CC[C@]4(C)[C@H]3C[C@H](O)[C@]12C` (stereo partly specified): in the assay filed under Oryctolagus cuniculus [7], the IC75 is over 250 µM. For the same compound, in the assay filed under Oryctolagus cuniculus [8], the IC50 was over 250 µM. Also, the 25% effect level in the assay filed under Oryctolagus cuniculus [9] (IC25) was put at 176 µM.
On to `CC(CCC(=O)N[C@H]1CC[C@@]2(C)[C@@H](C1)C[C@@H](O)[C@@H]1[C@@H]2C[C@H](O)[C@]2(C)C(C(C)CCC(=O)O)CC[C@@H]12)C1CC[C@H]2[C@@H]3[C@H](O)C[C@@H]4C[C@H](O)CC[C@]4(C)[C@H]3C[C@H](O)[C@]12C` (stereo partly specified), for which the figures for the Inhibition in the assay on Rattus norvegicus [1], in the assay on Rattus norvegicus [2] and with Rattus norvegicus [10] were 59%, 54% and 51%, respectively. The compound also registered an IC75 in the assay filed under Oryctolagus cuniculus [7] of 84 µM. For the same compound, in the assay listed under Oryctolagus cuniculus [8], half-maximal inhibition (IC50) required 48 µM. In the assay listed under Oryctolagus cuniculus [9], this compound yielded a concentration for an effect of 25% (IC25) of 24 µM.
